Drawing on patent publication US12473296B2, “Perk inhibiting compounds” (HiberCell, Inc., priority 2019, dated 2025), this text covers IC50 for 21 molecules.

Test [1] deals with PERK (Homo sapiens (Human), UniProt Q9NZJ5). Kind of test: PERK cellular assay (TR-FRET, HEK293-EGFP-eIF2α cells, tunicamycin-induced ER stress). The following applies: tunicamycin 2 hours, read-out: Cellular IC50 (μM) (EIF2a). Type of test: cell-based. In short, it runs like this:
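After 2 h tunicamycin ([…]) stress following 30 min compound pretreatment at 37 °C, lysed HEK293-EGFP-eIF2α cells were read by TR-FRET. IC50 derived by 4-parameter logistic fitting of percent inhibition, DMSO-normalized, from 10-point 3-fold dilutions.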
Background: In TR-FRET formats the signal depends on donor and acceptor labels being close together.

Test [2] concerns the target EIF2AK3 (PERK) catalytic domain (amino acids 536-1116) (Homo sapiens (Human), UniProt Q9NZJ5). Kind of test: PERK in vitro activity assay (isolated), TR-FRET kinase assay. The note with it: isolated PERK enzyme, 1.5 μM ATP, GFP-eIF2a substrate; read-out: Biochemical IC50. The text has this:
PERK In Vitro Activity Assay (Isolated):
In vitro Inhibition of PERK Enzyme Activity (isolated) Recombinant human EIF2AK2 (PKR) catalytic domain (amino acids 252-551), EIF2AK3 (PERK) catalytic domain (amino acids 536-1116), GFP-eIF2a substrate, and Terbium-labelled phospho-eIF2a antibody is obtained (Invitrogen, Carlsbad, CA).
Express and purify HIS-SUMO-GCN2 catalytic domain (amino acids 584-1019) from E. coli. Perform TR-FRET kinase assays in the absence or presence of inhibitors in a reaction buffer consisting of 50 mM HEPES, pH 7.5, 10 mM MgCb, 1.0 mM EGTA, and 0.01% Brij-35, and 100-200 nM GFP-eIF2a substrate. […] Add test compound, initiate the reaction by addition of enzyme, and incubate at room temperature for 45 minutes. Stop the reaction by addition of EDTA to a final concentration of 10 mM, add Terbium-labelled phospho-eIF2a antibody at a final concentration of 2 nM, and incubate for 90 minutes. Monitor the resulting fluorescence in an EnVison® Multilabel reader (PerkinElmer, Waltham, MA). Determine TR-FRET ratios and the resulting IC50 values using a 4-parameter nonlinear logistic equation as shown: Y=(A+((B−A)/(1+((C/x)[…])))) where, Y=% specific inhibition, A=Bottom of the curve, B=Top of the curve, C=absolute IC50 (concentration causing 50% inhibition), and D=hill slope.

Sequence of PERK (Q9NZJ5 30-1116): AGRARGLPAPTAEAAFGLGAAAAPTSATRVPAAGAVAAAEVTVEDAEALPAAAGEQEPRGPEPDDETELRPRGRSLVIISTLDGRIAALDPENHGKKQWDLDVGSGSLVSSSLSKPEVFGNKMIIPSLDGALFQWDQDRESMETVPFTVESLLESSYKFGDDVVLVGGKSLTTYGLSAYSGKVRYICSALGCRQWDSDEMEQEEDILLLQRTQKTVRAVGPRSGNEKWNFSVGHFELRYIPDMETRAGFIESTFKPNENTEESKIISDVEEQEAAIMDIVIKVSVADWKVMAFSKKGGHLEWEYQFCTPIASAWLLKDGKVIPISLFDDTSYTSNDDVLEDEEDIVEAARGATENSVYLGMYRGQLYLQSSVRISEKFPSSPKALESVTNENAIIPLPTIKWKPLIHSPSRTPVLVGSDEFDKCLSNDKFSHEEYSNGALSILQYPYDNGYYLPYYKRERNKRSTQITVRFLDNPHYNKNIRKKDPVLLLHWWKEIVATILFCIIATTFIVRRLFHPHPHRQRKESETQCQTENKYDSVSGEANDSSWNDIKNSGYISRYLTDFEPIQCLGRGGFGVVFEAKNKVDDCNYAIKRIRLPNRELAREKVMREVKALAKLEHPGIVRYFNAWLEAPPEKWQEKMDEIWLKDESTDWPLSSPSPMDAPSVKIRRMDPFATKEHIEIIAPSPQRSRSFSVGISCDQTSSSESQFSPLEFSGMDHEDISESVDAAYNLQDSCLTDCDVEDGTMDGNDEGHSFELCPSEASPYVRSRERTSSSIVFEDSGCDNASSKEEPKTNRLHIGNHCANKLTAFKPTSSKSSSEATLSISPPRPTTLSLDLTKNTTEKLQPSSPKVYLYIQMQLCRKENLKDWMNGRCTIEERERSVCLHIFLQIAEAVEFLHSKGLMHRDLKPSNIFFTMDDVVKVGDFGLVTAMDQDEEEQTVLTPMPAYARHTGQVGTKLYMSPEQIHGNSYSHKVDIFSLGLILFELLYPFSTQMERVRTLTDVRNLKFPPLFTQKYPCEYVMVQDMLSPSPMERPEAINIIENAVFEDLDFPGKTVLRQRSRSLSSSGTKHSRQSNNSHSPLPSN
Sequence of EIF2AK3 (PERK) catalytic domain (amino acids 536-1116) (Q9NZJ5 536-1116): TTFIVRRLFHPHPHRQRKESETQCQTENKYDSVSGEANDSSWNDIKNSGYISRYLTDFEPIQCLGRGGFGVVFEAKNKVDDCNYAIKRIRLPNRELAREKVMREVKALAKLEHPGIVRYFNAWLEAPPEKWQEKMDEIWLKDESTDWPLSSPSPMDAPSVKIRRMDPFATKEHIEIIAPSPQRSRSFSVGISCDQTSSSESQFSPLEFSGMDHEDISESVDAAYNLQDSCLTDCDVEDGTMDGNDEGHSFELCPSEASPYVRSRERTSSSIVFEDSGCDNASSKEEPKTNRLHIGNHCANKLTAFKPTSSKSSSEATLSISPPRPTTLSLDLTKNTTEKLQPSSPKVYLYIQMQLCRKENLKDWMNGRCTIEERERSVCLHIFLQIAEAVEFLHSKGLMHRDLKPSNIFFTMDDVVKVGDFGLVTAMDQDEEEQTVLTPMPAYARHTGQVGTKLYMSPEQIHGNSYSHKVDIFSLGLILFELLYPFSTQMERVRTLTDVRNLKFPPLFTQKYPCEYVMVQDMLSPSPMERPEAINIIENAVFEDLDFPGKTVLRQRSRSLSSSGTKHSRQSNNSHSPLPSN

One may read the IC50 as the point on the concentration scale where inhibition reaches its midpoint. `CCc1cc(NC(=O)C(O)c2cccc(Cl)c2)ccc1-c1cnc(N)c(C(=O)NC(C)C)c1` (single isomer, unassigned) [Example 108, 2-amino-5-(4-(2-(3-chlorophenyl)-2-hydroxyacetamido)-2-ethylphenyl)-N-isopropylnicotinamide]: the IC50 is 0.001 to 0.025 µM in test [1] and 1 to 25 nM in test [2].
The matching figures for `CCc1cc(NC(=O)C(O)c2cccc(Cl)c2)ccc1-c1cnc(N)c(C(=O)NC(C)C)c1` (single isomer, unassigned) [Example 109, 2-amino-5-(4-(2-(3-chlorophenyl)-2-hydroxyacetamido)-2-ethylphenyl)-N-isopropylnicotinamide]: 0.101 to 0.25 µM and 51 to 100 nM.
The matching figures for `CCc1cc(NC(=O)C(O)c2cc(F)cc(F)c2)ccc1-c1cnc(N)c(C(=O)NCC(F)(F)F)n1` (single isomer, unassigned) [Example 154, 3-amino-6-(4-(2-(3,5-difluorophenyl)-2-hydroxyacetamido)-2-ethylphenyl)-N-(2,2,2-trifluoroethyl) pyrazine-2-carboxamide]: 0.001 to 0.025 µM and 1 to 25 nM.
For `CCc1cc(NC(=O)C(O)c2cc(F)cc(F)c2)ccc1-c1cnc(N)c(C(=O)NCC(F)(F)F)n1` (single isomer, unassigned) [Example 155, 3-amino-6-(4-(2-(3,5-difluorophenyl)-2-hydroxyacetamido)-2-ethylphenyl)-N-(2,2,2-trifluoroethyl) pyrazine-2-carboxamide] the same measures were 0.101 to 0.25 µM and 101 to 250 nM.
Turning to `Cc1cc(NC(=O)C(C)(O)c2ccccc2)ccc1-c1cnc(N)c(C(=O)NC(C)C)c1` (stereo not drawn) [Example 3, 2-amino-5-(4-(2-hydroxy-2-phenylpropanamido)-2-methylphenyl)-N-isopropylnicotinamide], the results for the IC50 in test [1] and in test [2] were 2 to 3 µM and 101 to 250 nM, respectively.
For `Cc1cc(NC(=O)C(C)(O)c2ccccc2)ccc1-c1cnc(N)c(C(=O)NC(C)C)c1` (stereo not drawn) [Example 4, 2-amino-5-(4-(2-hydroxy-2-phenylpropanamido)-2-methylphenyl)-N-isopropylnicotinamide] the same measures were 3 to 4 µM and 101 to 250 nM.
The matching figures for `COC(C(=O)Nc1ccc(-c2cnc(N)c(C(=O)NC(C)C)c2)c(C)c1)c1ccccc1` (stereo not drawn) [Example 5, 2-amino-N-isopropyl-5-(4-(2-methoxy-2-phenylacetamido)-2-methylphenyl) nicotinamide]: 3 to 4 µM and 1000 to 2000 nM.
`Cc1cc(NC(=O)C(N)c2ccccc2)ccc1-c1cnc(N)c(C(=O)NC(C)C)c1` (stereo not drawn) [Example 6, 2-amino-5-(4-(2-amino-2-phenylacetamido)-2-methylphenyl)-N-isopropyl-nicotinamide]: the figures for the half-maximal inhibitory concentration (IC50) in test [1] and in test [2] were 3 to 4 µM and 1000 to 2000 nM, respectively.
Regarding `Cc1cc(NC(=O)C(N)c2ccccc2)ccc1-c1cnc(N)c(C(=O)NC(C)C)c1` (stereo not drawn) [Example 7, 2-amino-5-(4-(2-amino-2-phenylacetamido)-2-methylphenyl)-N-isopropylnicotinamide], the figures for the half-maximal inhibitory concentration (IC50) in test [1] and in test [2] were over 5 µM and 1000 to 2000 nM, respectively.
For `Cc1cc(NC(=O)C(O)c2cc(F)cc(F)c2)ccc1-c1cnc(N)c(C(=O)NC(C)C)c1` (stereo not drawn) [Example 8, 2-amino-5-(4-(2-(3,5-difluorophenyl)-2-hydroxyacetamido)-2-methylphenyl)-N-isopropyl nicotinamide] the same measures were 0.026 to 0.05 µM and 1 to 25 nM.
For `Cc1cc(NC(=O)C(O)c2cc(F)cc(F)c2)ccc1-c1cnc(N)c(C(=O)NC(C)C)c1` (stereo not drawn) [Example 9, 2-amino-5-(4-(2-(3,5-difluorophenyl)-2-hydroxyacetamido)-2-methylphenyl)-N-isopropyl nicotinamide] the same measures were 0.101 to 0.25 µM and 26 to 50 nM.
The matching figures for `Cc1cc(NC(=O)[C@H](O)c2cc(F)cc(F)c2)ccc1-c1cnc(N)c(C(=O)NC2CC2)c1` [Example 14, (R)-2-amino-N-cyclopropyl-5-(4-(2-(3,5-difluorophenyl)-2-hydroxyacetamido)-2-methylphenyl)nicotinamide]: 0.026 to 0.05 µM and 1 to 25 nM.
With `Cc1cc(NC(=O)C(O)c2cc(F)cc(F)c2)ccc1-c1cnc(N)c(C(=O)NC2CC2)c1` (stereo not drawn) [Example 15, 2-amino-N-cyclopropyl-5-(4-(2-(3,5-difluorophenyl)-2-hydroxyacetamido)-2-methylphenyl) nicotinamide], the figures for the IC50 in test [1] and in test [2] were 0.251 to 0.5 µM and 26 to 50 nM, respectively.
As for `Cc1cc(NC(=O)C(O)c2cc(F)cc(F)c2)ccc1-c1cnc(N)c(C(=O)NCC(C)C)c1` (stereo not drawn) [Example 20, 2-amino-5-(4-(2-(3,5-difluorophenyl)-2-hydroxyacetamido)-2-methylphenyl)-N-isobutylnicotinamide], the IC50 in test [1] is 0.026 to 0.05 µM; in test [2] it was 1 to 25 nM.
The matching figures for `Cc1cc(NC(=O)C(O)c2cc(F)cc(F)c2)ccc1-c1cnc(N)c(C(=O)NCC(C)C)c1` (stereo not drawn) [Example 21, 2-amino-5-(4-(2-(3,5-difluorophenyl)-2-hydroxyacetamido)-2-methylphenyl)-N-isobutylnicotinamide]: 0.251 to 0.5 µM and 101 to 250 nM.
Regarding `Cc1cc(NC(=O)C(O)c2cc(F)cc(F)c2)ccc1-c1cnc(N)c(C(=O)N(C)C)c1` (stereo not drawn) [Example 22, 2-amino-5-(4-(2-(3,5-difluorophenyl)-2-hydroxyacetamido)-2-methylphenyl)-N,N-dimethylnicotinamide], the figures for the IC50 in test [1] and in test [2] were 2 to 3 µM and 501 to 1000 nM, respectively.
Take `Cc1cc(NC(=O)C(O)c2cc(F)cc(F)c2)ccc1-c1cnc(N)c(C(=O)N(C)C)c1` (stereo not drawn) [Example 23, 2-amino-5-(4-(2-(3,5-difluorophenyl)-2-hydroxyacetamido)-2-methylphenyl)-N,N-dimethylnicotinamide]: the values for the IC50 in test [1] and in test [2] were over 5 µM and over 5000 nM, respectively.
The matching figures for `Cc1cc(NC(=O)C(O)c2cc(F)cc(F)c2)ccc1-c1cnc(N)c(C(=O)NC2COC2)c1` (stereo not drawn) [Example 24, 2-amino-5-(4-(2-(3,5-difluorophenyl)-2-hydroxyacetamido)-2-methylphenyl)-N-(oxetan-3-yl)nicotinamide]: 0.051 to 0.1 µM and 1 to 25 nM.
Turning to `Cc1cc(NC(=O)C(O)c2cc(F)cc(F)c2)ccc1-c1cnc(N)c(C(=O)NC2COC2)c1` (stereo not drawn) [Example 25, 2-amino-5-(4-(2-(3,5-difluorophenyl)-2-hydroxyacetamido)-2-methylphenyl)-N-(oxetan-3-yl)nicotinamide], the IC50 fell in the range of 0.501 to 1 µM in test [1] and 26 to 50 nM in test [2].
With `Cc1cc(NC(=O)C(O)c2cc(F)cc(F)c2)ccc1-c1cnc(N)c(C(=O)NC2CC(O)C2)c1` (stereo not drawn) [Example 26, 2-amino-5-(4-(2-(3,5-difluorophenyl)-2-hydroxyacetamido)-2-methylphenyl)-N-(3-hydroxycyclobutyl) nicotinamide], the IC50 was in the range of 0.101 to 0.25 µM in test [1] and 1 to 25 nM in test [2].
For `Cc1cc(NC(=O)C(O)c2cc(F)cc(F)c2)ccc1-c1cnc(N)c(C(=O)NC2CC(O)C2)c1` (stereo not drawn) [Example 27, 2-amino-5-(4-(2-(3,5-difluorophenyl)-2-hydroxyacetamido)-2-methylphenyl)-N-(3-hydroxycyclobutyl) nicotinamide] the same measures were 1 to 2 µM and 51 to 100 nM.
